Experimental data as given in US8981112B2, “Inhibitors of β-secretase” (Boehringer Ingelheim International GmbH, priority 2012, dated 2015).

Tests used:
[1] = test system: production of Abeta1-x peptides in H4 neuroglioma cell line stably expressing human APP; experiment: H4-APPwt Cell-Based Assay (Assay 2), Abeta1-x production; conditions: H4 neuroglioma cells expressing human APP, Abeta1-x; read-out: H4-APPwt cell IC50 nM (assay 2)
Procedure: H4-APPwt Cell-Based Assay (Assay 2)
Cellular potency of the compounds of the invention was assessed in an assay monitoring production of Abeta1-x peptides in the H4 neuroglioma cell line (ATCC, Cat. #HTB-148) stably expressing human APP, using an immunoassay such as AlphaLISA (PerkinElmer, Cat.# AL288). Tested compounds were dissolved in DMSO and pre-diluted in the culture medium (DMEM containing 10% FBS and 1% penicillin/streptomycin) to achieve twice the final concentration of the compounds in the assay. Equal volumes of the 2× solutions of the tested compounds and cell suspension were added to a 96-well culture plate, so that each well contained ˜10,000 cells in a final volume of 200 μl. Final concentration of DMSO in the assay was 0.2%. The plates were incubated for 5 hrs at 37° C., 5% CO2 to allow cells to attach to the bottom of the wells in the presence of the tested compounds. Then the media was removed and replaced with fresh media containing tested compounds at the same final concentration. The plates were incubated for 18 hrs at 37° C., 5% CO2. Concentrations of Ab1-x were determined using AlphaLISA immunoassay (PerkinElmer, Cat.# AL288) following manufacturer's protocol. Concentrations of Abeta1-x in the wells containing either DMSO or 10 μM beta-secretase inhibitor (BACE inhibitor IV, EMD Bioscience, Cat. #565788) were used as uninhibited and background controls, correspondingly, for calculating percent inhibition values for each well with the tested compounds.

[2] = test system: brain amyloid peptides Aβ1-x; experiment: Rat Brain Aβ Lowering Assay (Assay 5); type: in vivo; conditions: 3 hrs after dosing
Procedure: Rat Brain Aβ Lowering Assay (Assay 5)
The animals were sacrificed 3 hrs after dosing, and brains were excised, dissected into cerebellum and left and right cerebra and flash-frozen in liquid nitrogen.
The cerebrum was homogenized (5 volumes per weight) in 20 mM Tris-HCL, pH 8.5, 0.2% Triton-X100 supplemented with protease inhibitors (complete, Roche Applied Science) at 4° C. using a glass Dounce homogenizer. The homogenate was centrifuged at 120,000×g for 60 min at 4° C., and the supernatant was collected and analyzed for Ab1-x using immunoassay with chemiluminescent detection (Meso-Scale Discovery, Rockville, Md. (MSD)).
Streptavidin 96-well plates (MSD) were pre-blocked with 5% Blocker A solution (MSD) for 1 hr at rt on an orbital shaker and washed 4 times with phosphate buffered saline (PBS). The wells were pre-coated with 20 ng/well of biotinylated antibody SIG-39155 (Clone M3.2, specific for amino acids 10-15 of the rodent Aβ) for 1 hr at rt and washed 4 times with PBS. For Aβ1-x analysis, 25 μl of either the cleared brain lysates or Aβ1-40 standards (8-500 pg/ml, with 2× increment) were incubated for 1 hr at rt with constant shaking. The wells were washed 4 times with PBS, and 25 μl of the detection antibody (Sulfo-TAG labeled anti-Aβ40 antibody supplied by MSD) was added and incubated for 1 hr at rt. After 4 washes with PBS, 150 μl of the chemiluminescence detection reagent (Read Buffer T, MSD) was added, and the plate was read on an MSD Sector Imager 6000 instrument. The calibration curve was fit into a non-linear four-parameter regression model, and the Aβ1-x concentrations were calculated for each well containing the cleared brain lysates. The percent of Aβ lowering was calculated based on the difference with the average Aβ concentration obtained for the brains from the animals treated with vehicle alone.

[3] = In Vitro Phospholipidosis Assay (Assay 4), Nile red staining; type: cell-based; conditions: human, first effect concentration, U937 cells, read-out: Phospholipidosis FEC IC50 μM (assay 4)
Procedure: In Vitro Phospholipidosis Assay (Assay 4)
The phospholipidogenic potential of test compounds was assayed using the human hematopoetic U937 cell line. The test principle was to analyze the phospholipid content by staining the cells with the fluorescent dye Nile red.
U937 cells were seeded into cell culture plates at 0.5×10^6 cells/mL in RPMI medium containing 10% FBS, 1% DMSO, and 0.005% gentamicin. The cells were then cultivated with or without different concentrations of test compounds for 48 h under standard culture conditions.
For harvesting the cells were centrifuged at 130×g for 4 min and washed once with PBS. Then 2×0.5 mL cell suspension was prepared for non-fixed cell measurement (0.5 mL for propidium iodide (PI) viability measurement and 0.5 mL for Nile red measurement).
The remaining cells were fixed with 3.7% formaldehyde for 30 min. After a further centrifugation step cells were resuspended with 1.3 mL Nile red working solution (1 μg/mL) and incubated for 5 min at rt. The cell suspension was then washed twice with 3 mL PBS and centrifuged with 130×g for 4 min. The supernatant was discarded and the cells were resuspended with 0.5 mL PBS and kept for flow cytometry measurement. For Nile red staining of the 0.5 mL non-fixed cell samples, 50 μL of a ready to use Nile red solution (10 μg/mL) were added per sample. Samples were kept on ice for 5 min. Thereafter, they were washed once with 4 mL PBS (4° C., 250×g for 8 min) and finally resuspended in 400 μL PBS and kept for flow cytometry measurement.
For the viability measurement, 12.5 μL of the ready to use PI solution (10 μg/mL) were added to the 0.5 mL non-fixed cell suspension. After 15 min of incubation on ice, the samples were measured by flow cytometry using a Coulter Epics XL/MCL flow cytometer.
The viability of the cells of each sample was determined by flow cytometry measurement of the PI content at channel 2 (568-590 nm). Cut-off gates for the fluorescence-dependent differentiation between live and dead cells were defined based on the analysis of cell culture medium control samples.
Only samples with a cell viability of >=90% relative to control samples were analyzed for phospholipidosis. For that, each Nile red sample (non-fixed and fixed samples) was measured by flow cytometry at channel 1 (504-541 nm) and channel 4 (660-680 nm).
For each channel, relative Nile red fluorescence intensity of a test sample was calculated compared to control samples and expressed as percentage of control fluorescence intensity. The assessment of the phospholipidogenic potential and the first effect concentration (FEC) of a test compound was done manually based on the fluorescence intensities at both wavelengths for the fixed cells as well as for the non-fixed cells.

[4] = biological target: hERG (Homo sapiens (Human), UniProt Q12809); experiment: hERG-Channel Assay (Assay 3), whole-cell patch clamp; type: cell-based; conditions: human, HEK293 cells stably transfected with hERG, pH 7.4; 10 μM, HEK293 cells transfected with hERG
hERG, sequence (Q12809 whole entry): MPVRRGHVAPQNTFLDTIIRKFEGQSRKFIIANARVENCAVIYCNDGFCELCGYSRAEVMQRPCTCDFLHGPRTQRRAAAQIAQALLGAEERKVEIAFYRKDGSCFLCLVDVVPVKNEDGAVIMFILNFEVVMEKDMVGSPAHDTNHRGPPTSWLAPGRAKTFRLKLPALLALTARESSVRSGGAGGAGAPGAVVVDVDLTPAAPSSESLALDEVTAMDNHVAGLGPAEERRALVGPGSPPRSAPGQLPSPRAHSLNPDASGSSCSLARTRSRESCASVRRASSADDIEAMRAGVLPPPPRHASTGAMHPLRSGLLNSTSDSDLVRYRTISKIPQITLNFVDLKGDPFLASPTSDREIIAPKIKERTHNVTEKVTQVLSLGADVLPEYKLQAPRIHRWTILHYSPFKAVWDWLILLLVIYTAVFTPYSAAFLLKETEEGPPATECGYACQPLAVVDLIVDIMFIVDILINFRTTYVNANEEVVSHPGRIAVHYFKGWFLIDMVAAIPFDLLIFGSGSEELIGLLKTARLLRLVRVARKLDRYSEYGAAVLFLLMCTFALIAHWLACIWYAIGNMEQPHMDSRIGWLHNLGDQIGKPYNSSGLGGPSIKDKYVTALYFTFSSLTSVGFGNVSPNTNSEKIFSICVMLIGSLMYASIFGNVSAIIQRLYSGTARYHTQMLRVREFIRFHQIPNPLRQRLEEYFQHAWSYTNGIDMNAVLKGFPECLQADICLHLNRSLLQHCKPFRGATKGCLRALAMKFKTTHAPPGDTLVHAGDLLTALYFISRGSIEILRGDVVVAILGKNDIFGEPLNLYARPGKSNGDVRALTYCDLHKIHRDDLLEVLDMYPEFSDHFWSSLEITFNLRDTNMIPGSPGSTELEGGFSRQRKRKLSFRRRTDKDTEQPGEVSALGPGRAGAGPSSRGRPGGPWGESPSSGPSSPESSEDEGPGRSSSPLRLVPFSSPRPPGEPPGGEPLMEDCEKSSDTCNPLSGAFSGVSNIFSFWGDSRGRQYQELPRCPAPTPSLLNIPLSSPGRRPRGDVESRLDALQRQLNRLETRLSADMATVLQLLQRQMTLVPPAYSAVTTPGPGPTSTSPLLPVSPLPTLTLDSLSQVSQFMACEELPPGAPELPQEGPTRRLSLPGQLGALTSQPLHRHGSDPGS
Source text: hERG-Channel Assay (Assay 3)
HEK (human embryonic kidney) 293 cells were stably transfected with hERG cDNA.
Cells were superfused with a bath solution containing (mM): NaCl (137), KCl (4.0), MgCl2 (1.0), CaCl2 (1.8), Glucose (10), HEPES (10), pH 7.4 with NaOH. Patch pipettes were made from borosilicate glass tubing using a horizontal puller and filled with pipette solution containing (mM): K-aspartate (130), MgCl2 (5.0), EGTA (5.0), K2ATP (4.0), HEPES (10.0), pH 7.2 with KOH. Resistance of the microelectrodes was in the range between 2 and 5 MΩ.
Membrane currents were recorded using an EPC-10 patch clamp amplifier and PatchMaster software. hERG-mediated membrane currents were recorded at 35° C., using the whole-cell configuration of the patch-clamp technique. Transfected HEK293 cells were clamped at a holding potential of −60 mV and hERG-mediated inactivating tail currents were elicited using a pulse pattern with fixed amplitudes (activation/inactivation: 40 mV for 2000 ms; recovery: −120 mV for 2 ms; ramp to 40 mV in 2 ms; inactivating tail current: 40 mV for 50 ms) repeated at 15 s intervals. During each inter-pulse interval 4 pulses scaled down by a factor of 0.2 were recorded for a P/n leak subtraction procedure. Rs compensation was employed up to a level that safely allowed recording devoid of ringing.
The different concentrations of the test compound were applied sequentially on each of the different cells investigated. A steady state level of baseline current was measured for at least 6 sweeps prior to the application of the first test compound concentration.
The test compound was dissolved in DMSO to yield a master stock solution which was diluted further in DMSO to stock solutions needed for the lower concentrations. Final dilutions in extracellular buffer were prepared freshly from these stocks by a 1:1000 dilution step each before starting the experiments.
Peak current amplitudes were measured 3 ms after the ramp to +40 mV. For baseline and each concentration the peak currents of the three last sweeps before application of the next concentration were averaged. Residual currents (I/I0) were calculated for each cell as the fraction of actual average peak current and average baseline peak current. Results are presented as percent (%) inhibition (1−I/I0)*100% at 10 μM.

CO[C@H]1CC[C@@]2(Cc3ccc(C#N)cc3[C@]23N=C(N)N(Cc2ncccn2)C3=O)C[C@@H]1C [Example 6]
IC50 [1]: 1.24 nM | % Aβ Reduction ([2]; single oral dose 50 mg/kg): 60% | IC50 at 48 h [3]: 200 µM | inhibition at 10 µM [4]: 35%

CO[C@H]1[C@H](C)C[C@@]2(Cc3ccc(C#N)cc3[C@]23N=C(N)N(CC2(C)OCCO2)C3=O)C[C@@H]1C [Example 20]
IC50 [1]: 0.28 nM | % Aβ Reduction ([2]; single oral dose 25 mg/kg): 73% | IC50 at 48 h [3]: > 400 µM | inhibition at 10 µM [4]: 8%

CC[C@@H]1C[C@]2(CC[C@H]1OC)Cc1ccc(C#N)cc1[C@]21N=C(N)N(C[C@H]2COCCO2)C1=O [Example 28]
IC50 [1]: 0.5 nM | % Aβ Reduction ([2]; single oral dose 12.5 mg/kg): 30% | IC50 at 48 h [3]: 400 µM | inhibition at 10 µM [4]: 9%

CO[C@H]1[C@H](C)C[C@@]2(Cc3ccc(F)cc3[C@]23N=C(N)N(CC2(C)OCCO2)C3=O)C[C@@H]1C [Example 29]
IC50 [1]: 0.3 nM | % Aβ Reduction ([2]; single oral dose 25 mg/kg): 78% | IC50 at 48 h [3]: 200 µM | inhibition at 10 µM [4]: 7%
